pIC50: −log10 of the molar value. Like-named read-outs stand apart in the source and are kept apart here. A value given as a limit tells only on which side of the number the result lay.

The target of one assay is mPAD4 (Mus musculus, UniProt Q9Z183). As to the kind of experiment: PAD4 inhibition assay, RapidFire mass spectrometry (mPAD4 RFMS). It counts as biochemical. The conditions noted are these: for IC50: pIC50=-log(IC50), read-out: mPAD4 RFMS pIC50 (converted); for pIC50: read-out: mPAD4 RFMS IC50.
The next assay concerns the target hPAD4 (Homo sapiens, UniProt Q9UM07). As to the kind of experiment: PAD4 inhibition assay, RapidFire mass spectrometry (hPAD4 RFMS). Format: biochemical. Conditions: for pIC50: 100 nM hPAD4 enzyme, 50 μM substrate peptide, 65 mins at 37° C., read-out: hPAD4 RFMS IC50; for IC50: pIC50=-log(IC50), read-out: hPAD4 RFMS pIC50 (converted). On the procedure: Compounds of the present invention were assayed as inhibitors of PAD4 using the assay protocol described below.
Compounds were solubilised in 100% DMSO to achieve 100 mM final compound concentration. Compound stock solutions were stored at RT. A series of dilutions were prepared in DMSO and mixed 8 times with 20 μL, mixing volume. Final assay conditions were as follows:
Assay buffer (as aforementioned): 100 mM Tris-HCl (pH 7.6), 2 mM DTT, 1 mM CaCl2
Final concentrations: • 100 nM hPAD4 enzyme • 50 μM (8-fold sub-Km) substrate peptide • 0.5% DMSO
Total incubation time: 65 mins at 37° C.
Stop solution: 40 μl 5% TCA in ACN
0.25 μL of compound solution was added to 10 μL of 200 nM PAD4 in assay buffer (100 mM Tris-HCl pH 7.6, 2 mM DTT). After 5 mins, 10 μL of 100 μM of substrate in buffer (100 mM Tris-HCl pH 7.6, 2 mM DTT, 2 mM CaCl2) was added and the reaction incubated for 60 mins at 37 ° C. The enzymatic reaction was quenched by addition of 40 μl of 5% TCA in ACN (1.7% TCA final concentration) stop solution. Arginine containing substrate and citrulline containing product (+1 Da mass shift) were subjected to solid phase extraction on Agilent RapidFire (RF) 300 system and detected on a coupled, triple quadrupole Agilent 6460 QQQ mass spectrometry (MS) device under application of multiple reaction monitoring (MRM) for quantitation.

Chain of mPAD4 (Q9Z183 whole entry): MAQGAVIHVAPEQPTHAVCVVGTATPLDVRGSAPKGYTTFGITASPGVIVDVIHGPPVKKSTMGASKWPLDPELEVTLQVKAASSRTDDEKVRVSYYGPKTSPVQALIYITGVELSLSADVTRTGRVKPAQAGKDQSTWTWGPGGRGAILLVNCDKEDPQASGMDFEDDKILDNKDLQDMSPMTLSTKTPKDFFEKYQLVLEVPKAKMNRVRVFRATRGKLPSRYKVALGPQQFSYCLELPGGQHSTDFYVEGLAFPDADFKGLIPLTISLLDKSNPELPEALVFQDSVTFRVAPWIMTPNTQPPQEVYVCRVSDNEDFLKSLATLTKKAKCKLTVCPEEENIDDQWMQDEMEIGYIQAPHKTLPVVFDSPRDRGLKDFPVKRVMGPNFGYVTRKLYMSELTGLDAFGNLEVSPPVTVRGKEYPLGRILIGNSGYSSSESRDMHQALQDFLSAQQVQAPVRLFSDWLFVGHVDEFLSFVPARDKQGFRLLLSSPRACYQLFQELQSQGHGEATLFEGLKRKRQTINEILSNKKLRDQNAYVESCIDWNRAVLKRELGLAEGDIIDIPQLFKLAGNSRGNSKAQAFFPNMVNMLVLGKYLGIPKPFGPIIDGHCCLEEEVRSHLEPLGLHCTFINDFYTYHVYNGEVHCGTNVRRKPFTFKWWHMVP
Chain of hPAD4 (Q9UM07 whole entry): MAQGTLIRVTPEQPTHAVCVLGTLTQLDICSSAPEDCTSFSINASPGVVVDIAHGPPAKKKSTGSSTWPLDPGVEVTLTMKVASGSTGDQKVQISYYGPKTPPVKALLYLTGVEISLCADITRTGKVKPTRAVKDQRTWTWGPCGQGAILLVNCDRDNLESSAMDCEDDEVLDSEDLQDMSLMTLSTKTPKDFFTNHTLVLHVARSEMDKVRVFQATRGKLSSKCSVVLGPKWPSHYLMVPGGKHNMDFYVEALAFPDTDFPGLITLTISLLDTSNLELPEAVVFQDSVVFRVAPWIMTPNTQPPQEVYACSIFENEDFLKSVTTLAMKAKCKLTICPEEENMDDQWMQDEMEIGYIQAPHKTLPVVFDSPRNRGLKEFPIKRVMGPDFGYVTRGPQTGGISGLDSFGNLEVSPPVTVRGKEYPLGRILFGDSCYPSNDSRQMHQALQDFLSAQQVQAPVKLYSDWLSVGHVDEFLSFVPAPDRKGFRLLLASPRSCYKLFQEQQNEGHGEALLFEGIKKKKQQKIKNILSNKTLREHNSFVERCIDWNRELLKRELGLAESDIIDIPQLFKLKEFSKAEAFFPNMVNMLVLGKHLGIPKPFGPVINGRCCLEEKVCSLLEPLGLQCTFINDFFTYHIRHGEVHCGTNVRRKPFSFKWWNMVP

For `CCn1c(-c2nc3cc(C(=O)N4CCC[C@@H](N)C4)cnc3n2CCOC)cc2ccc(OC)nc21` [Compound I-49], the IC50 at mPAD4 and on hPAD4 was 1000 to 10000 nM throughout. Moreover, the pIC50 on mPAD4 is 5.30 to 6.00; at hPAD4, 5.00 to 5.30.

Turning to `CO[C@]1(C)C[C@H](Cn2c(-c3cc4cccnc4n3CC3CC3)nc3cc(C(=O)N4C[C@H]5CC[C@@H]4[C@@H]5N)cnc32)C1` [Compound I-50], on mPAD4, the IC50 was not above 1000 nM and the pIC50 is not below 6.00. Also, on hPAD4, the pIC50 was not below 6.00 and the IC50 was not above 1000 nM.

`Cn1c(-c2cc3cccnc3n2CC(C)(F)F)nc2cc(C(=O)N3CCC[C@@H](N)C3)cnc21` [Compound I-11]: at mPAD4, the IC50 was 1000 to 10000 nM and the pIC50 is 5.00 to 5.30. At hPAD4, the pIC50 was 5.00 to 5.30 and the IC50 was 1000 to 10000 nM.

For `CCn1c(-c2cc3ccc(OC)nc3n2CC2CC2)nc2cc(C(=O)N3CCC[C@@H](N)C3)cnc21` [Compound I-16], the IC50 on mPAD4 and on hPAD4 was not above 1000 nM in each case. Moreover, the pIC50 on mPAD4 and on hPAD4 was not below 6.00 in each case.

As to `CCn1c(-c2nc3cc(C(=O)N4CCC[C@@H](N)C4)cnc3n2CC)cc2cccnc21` [Compound I-4], at mPAD4, the IC50 was 1000 to 10000 nM and the pIC50 is 5.30 to 6.00. Moreover, on hPAD4, the pIC50 was 5.00 to 5.30 and the IC50 was 1000 to 10000 nM.

These data come from patent US20170166592A1, “AZA-BENZIMIDAZOLE INHIBITORS OF PAD4” (Padlock Therapeutics, Inc., priority 2015, published 2017).
